Patent publication US8071625B2, “Certain chemical entities, compositions, and methods” (Cytokinetics, Inc., priority 2006, dated 2011)

These compounds were tested against T1, crosslinked smooth muscle actomyosin (chicken gizzard smooth muscle myosin subfragment-1 crosslinked to cardiac or skeletal actin) (Gallus gallus, UniProt P10587) (assay: Lead optimization pyruvate kinase/horseradish peroxidase/pyruvate oxidase-coupled ATPase assay (compound dose response)). Details: read-out: IC50 Arithmetic Mean.
T1 construct: chicken gizzard smooth muscle myosin subfragment-1; from tissue; host or cells: chicken gizzard
Type: biochemical
Procedure: Screening assays were performed using a pyruvate kinase and lactate dehydrogenase-coupled ATPase assay containing the following reagents: Potassium PIPES (50 mM), MgCl2 (3 mM), KCl (100 mM), ATP (0.15 mM), DTT (1 mM), BSA (0.1 mg/ml), NADH (0.5 mM), PEP (1.5 mM), pyruvate kinase (4 U/ml), lactate dehydrogenase (8 U/ml), and antifoam (50 ppm) (concentrations expressed are final assay concentrations). The pH was adjusted to 6.80 at 22° C. by addition of potassium hydroxide. Lead optimization assays were performed with a more sensitive pyruvate kinase/horseradish peroxidase/pyruvate oxidase-coupled ATPase assay containing the following reagents: Potassium PIPES (12 mM), MgCl2 (2 mM), KCl (100 mM), ATP (0.15 mM), BSA (0.05 mg/ml), potassium phosphate (2 mM), amplex red (0.1 mM), PEP (0.1 mM), pyruvate kinase (4 U/ml), horseradish peroxidase (0.5 U/ml), pyruvate oxidase (0.5 U/ml), and antifoam (50 ppm) (concentrations expressed are final assay concentrations). The pH was adjusted to 7.00 at 22° C. by addition of potassium hydroxide.
The protein components specific to this assay are chicken gizzard smooth muscle myosin subfragment-1 that has been chemically crosslinked to either cardiac or skeletal actin using an excess of 1-Ethyl-3-[3-dimethylaminopropyl]carbodiimide hydrochloride and N-hydroxysuccinimide. The exact concentration of the crosslinked smooth muscle myosin in the assay is determined empirically, by titration to achieve a desired rate of ATP hydrolysis. The concentration varies between protein preparations due to variations in the fraction of active molecules in each preparation.
Compound dose response assays are performed by first preparing a dilution series of test compound, each with an assay mixture containing potassium PIPES, MgCl2, KCl, ATP, BSA, potassium phosphate, amplex red, PEP, crosslinked smooth muscle actomyosin (subfragment-1), antifoam, and water. The assay is started by adding an equal volume of solution containing potassium Pipes, MgCl2, KCl, BSA, potassium phosphate, pyruvate kinase, horseradish peroxidase, pyruvate oxidase, antifoam, and water. ATP hydrolysis is monitored by measuring the fluorescence of amplex red (excitation at 480 nm, emission at 615 nm). The resulting dose response curve is fit by the 4 parameter equation y=Bottom+((Top-Bottom)/(1+((IC50/X)^Hill))). The IC50 is defined as the concentration at which ATPase activity is midway between the top and bottom of the dose response curve.

Row | IC50 [nM] | Structure (SMILES)
1 | 8110 | CCc1ccc(NC(=O)OCC2(C(=O)NCc3ccccc3)CCN(C(=O)CN)CC2)cc1 [(1-(2-aminoacetyl)-4-{[N-(4-ethylphenyl)carbamoyloxy]methyl}(4-piperidyl))-N-benzylcarboxamide]
2 | 949 | CCc1ccc(NC(=O)OCC2(C(=O)NCc3ccccc3CO)CCN(C(=O)CN)CC2)cc1 [(1-(2-aminoacetyl)-4-{[N-(4-ethylphenyl)carbamoyloxy]methyl}(4-piperidyl))-N-{[2-(hydroxymethyl)phenyl]methyl}carboxamide]
3 | 14600 | NCC(=O)N1CCC(COC(=O)Nc2ccc(F)cc2)(C(=O)NCc2ccccc2Cl)CC1 [(1-(2-aminoacetyl)-4-{[N-(4-fluorophenyl)carbamoyloxy]methyl}(4-piperidyl))-N-[(2-chlorophenyl)methyl]carboxamide]
4 | 191 | Cc1ccc(NC(=O)OCC2(C(=O)NCc3ccccc3Cl)CCN(C(=O)CN)CC2)cc1 [(1-(2-aminoacetyl)-4-{[N-(4-methylphenyl)carbamoyloxy]methyl}(4-piperidyl))-N-[(2-chlorophenyl)methyl]carboxamide]
5 | 277 | NCC(=O)N1CCC(COC(=O)Nc2ccc(-c3ccccc3)cc2)(C(=O)NCc2ccccc2Cl)CC1 [(1-(2-aminoacetyl)-4-{[N-(4-phenylphenyl)carbamoyloxy]methyl}(4-piperidyl))-N-[(2-chlorophenyl)methyl]carboxamide]
6 | 1160 | CCc1ccc(NC(=O)OCC2(C(=O)NCc3ccccc3Cl)CCN(CCN)CC2)cc1 [(1-(2-aminoethyl)-4-{[N-(4-ethylphenyl)carbamoyloxy]methyl}(4-piperidyl))-N-[(2-chlorophenyl)methyl]carboxamide]
7 | 120 | CCc1ccc(NC(=O)OCC2(C(=O)NCc3ccccc3Cl)CCN(C(=O)C(O)CN)CC2)cc1 (stereo not shown) [(1-(3-amino-2-hydroxypropanoyl)-4-{[N-(4-ethylphenyl)carbamoyloxy]methyl}(4-piperidyl))-N-[(2-chlorophenyl)methyl]carboxamide]
8 | 187 | CCc1ccc(NC(=O)OCC2(C(=O)NCc3ccccc3Cl)CCN(C(=O)C(O)CCN)CC2)cc1 (stereo not shown) [(1-(4-amino-2-hydroxybutanoyl)-4-{[N-(4-ethylphenyl)carbamoyloxy]methyl}(4-piperidyl))-N-[(2-chlorophenyl)methyl]carboxamide]
9 | 246 | CCc1ccc(NC(=O)OCC2(C(=O)NCc3ccccc3Cl)CCN(C(=O)CCCN)CC2)cc1 [(1-(4-aminobutanoyl)-4-{[N-(4-ethylphenyl)carbamoyloxy]methyl}(4-piperidyl))-N-[(2-chlorophenyl)methyl]carboxamide]
10 | 164 | CCc1ccc(NC(=O)OCC2(C(=O)NCc3ccccc3Cl)CCN(C(=O)[C@H](N)CO)CC2)cc1 [(1-((2R)-2-amino-3-hydroxypropanoyl)-4-{[N-(4-ethylphenyl)carbamoyloxy]methyl}(4-piperidyl))-N-[(2-chlorophenyl)methyl]carboxamide]
11 | 255 | CCc1ccc(NC(=O)OCC2(C(=O)NCc3ccccc3Cl)CCN(C(=O)[C@@H](C)N)CC2)cc1 [(1-((2R)-2-aminopropanoyl)-4-{[N-(4-ethylphenyl)carbamoyloxy]methyl}(4-piperidyl))-N-[(2-chlorophenyl)methyl]carboxamide]
12 | 1480 | CCc1ccc(NC(=O)OCC2(C(=O)NCc3ccccc3Cl)CCCN(C(=O)[C@@H](N)CO)C2)cc1 (stereo partly drawn) [(1-((2S)-2-amino-3-hydroxypropanoyl)-3-{[N-(4-ethylphenyl)carbamoyloxy]methyl}(3-piperidyl))-N-[(2-chlorophenyl)methyl]carboxamide]
13 | 125 | CCc1ccc(NC(=O)OCC2(C(=O)NCc3ccccc3Cl)CCN(C(=O)[C@@H](N)CO)CC2)cc1 [(1-((2S)-2-amino-3-hydroxypropanoyl)-4-{[N-(4-ethylphenyl)carbamoyloxy]methyl}(4-piperidyl))-N-[(2-chlorophenyl)methyl]carboxamide]
